ChEMBL document CHEMBL1129912, “Functionalized azoles and triazolo[1,5-a]pyrimidines as latent leishmanicides” (Bioorg Med Chem Lett, 1997)
pIC50: −log10 of the molar value.

Tests used:
[1] = test system: Leishmania donovani; assay: The in vitro leishmanicidal activity by measuring the 3H thymidine incorporation in promastigotes of Leishmania donovani at 200 uM concentration; type: functional
[2] = test system: Leishmania donovani; assay: The in vitro leishmanicidal activity by measuring the 3H thymidine incorporation in promastigotes of Leishmania donovani; type: functional, organism-based
[3] = test system: Leishmania donovani; assay: The in vitro leishmanicidal activity by measuring the 3H thymidine incorporation in promastigotes of Leishmania donovani at 100 uM concentration; type: functional

Cc1cc(O)n2nc(NS(=O)(=O)c3ccc(Cl)cc3)nc2n1
Growth inhibition [1]: 5%

Nc1n[nH]c(NS(=O)(=O)c2ccccc2)n1
Growth inhibition [1]: 97%
pIC50 [2]: 5.70

O=S(=O)(Nc1nc2nc3c(c(O)n2n1)CCC3)c1ccc(Cl)cc1
Growth inhibition [1]: 15%

N#Cc1cnc2nc(NS(=O)(=O)c3ccc(Cl)cc3)nn2c1N
Growth inhibition [1]: 0%

O=S(=O)(Nc1nc2nc(-c3ccccc3)cc(-c3ccccc3)n2n1)c1ccc(Cl)cc1
Growth inhibition [1]: 98%
pIC50 [2]: 5.70

Cc1ccc2nc(NS(=O)(=O)c3ccc(N)cc3)oc2c1
Growth inhibition [1]: 92.6%
pIC50 [2]: 4.81

Cc1ccc(S(=O)(=O)Nc2nc3nc(C)cc(C)n3n2)cc1
Growth inhibition [1]: 100%
pIC50 [2]: 5.82

Nc1ccc(S(=O)(=O)Nc2nc3ccccc3o2)cc1
Growth inhibition [1]: 74%
pIC50 [2]: 5.19

Nc1ccc(S(=O)(=O)Nc2nc3ccccc3[nH]2)cc1
Growth inhibition [1]: 80%
pIC50 [2]: 4.98

CCOC(=O)c1cnc2nc(NS(=O)(=O)c3ccc(Cl)cc3)nn2c1O
Growth inhibition [1]: 0%

CCOC(=O)c1cnc2nc(NS(=O)(=O)c3ccc(Cl)cc3)nn2c1N
Growth inhibition [1]: 0%

Cc1ccc(S(=O)(=O)Nc2nc3nc(-c4ccccc4)cc(O)n3n2)cc1
Growth inhibition [1]: 100%
pIC50 [2]: 5.70

CSc1nc2nc(NS(=O)(=O)c3ccc(Cl)cc3)nn2c(N)c1C#N
Growth inhibition [1]: 17%

Cc1cc(C)n2nc(NS(=O)(=O)c3ccc(Cl)cc3)nc2n1
Growth inhibition [1]: 3%

N=C(N)c1ccc(OCCCCCOc2ccc(C(=N)N)cc2)cc1 [PENTAMIDINE]
Growth inhibition [3]: 100%
pIC50 [2]: 6.12
